Laboratory results reported in patent US7767200B2, “Cancer treatment using viruses, fluoropyrimidines and camptothecins” (Wellstat Biologics Corporation, priority 2005, dated 2010).

Key:
[1] = system: human SW620 colon carcinoma cells; set-up: species or system athymic mice; conditions: mouse, in vivo
[2] = system: human HT1080 fibrosarcoma cells; set-up: species or system athymic mice; conditions: mouse, in vivo

Structure (SMILES)	Durable CRs, % [1] [%]	Complete Tumor Responses (CR), % [2] [%]
O=c1[nH]cc(F)c(=O)[nH]1 [5-FU, 5-fluorouracil]	0	0
CCc1c2c(nc3ccc(OC(=O)N4CCC(N5CCCCC5)CC4)cc13)-c1cc3c(c(=O)n1C2)COC(=O)[C@]3(O)CC [Irinotecan, 7-ethyl-10-[4-(1-piperidino)-1-piperidino]-carbonyloxycamptothecin]	0	–
